Assay results taken from ChEMBL document CHEMBL3769346, “Synthesis and SAR of calcitonin gene-related peptide (CGRP) antagonists containing substituted aryl-piperazines and piperidines” (Bioorg Med Chem Lett, 2016).
Active and inactive are the calls of the source. No cut-off for these calls is given here.

Assays:
[1] = biological target: CGRP receptor (CALCRL/RAMP1) (Homo sapiens); test: Displacement of [125I]CGRP from CGRP receptor in human SK-N-MC cells after 2 hrs by scintillation counter
[2] = Permeability of compound across apical to basolateral side in human Caco2 cells; assay type: ADME, cell-based; conditions: Caco-2, read-out: permeability
[3] = Permeability of compound by PAMPA; assay type: ADME; conditions: read-out: permeability
[4] = system: CGRP receptor (CALCRL/RAMP1) (Homo sapiens); test: Antagonist activity at CGRP receptor (unknown origin)

Compound	IC50 [1]	Papp A→B [2]	Papp [3]	Activity [4]
Cc1cc(C[C@@H](NC(=O)N2CCC(c3ccc(Cl)cc3)CC2)C(=O)N2CCC(N3CCCCC3)CC2)cc2cn[nH]c12	41 nM	–	–	–
Cc1cc(C[C@@H](NC(=O)N2CCN(c3ccc(Br)cc3)CC2)C(=O)N2CCC(N3CCCCC3)CC2)cc2cn[nH]c12	33 nM	< 1.5 ×10⁻⁶ cm/s	5.2 ×10⁻⁶ cm/s	Active
Cc1cc(C[C@@H](NC(=O)N2CCC(c3ccccc3Cl)CC2)C(=O)N2CCC(N3CCCCC3)CC2)cc2cn[nH]c12	9.8 nM	–	–	–
Cc1cc(C[C@@H](NC(=O)N2CCN(c3ccccc3Br)CC2)C(=O)N2CCC(N3CCCCC3)CC2)cc2cn[nH]c12	12 nM	5.6 ×10⁻⁶ cm/s	3.5 ×10⁻⁶ cm/s	Active
Cc1cc(C[C@@H](NC(=O)N2CCC(c3cccc(Cl)c3)CC2)C(=O)N2CCC(N3CCCCC3)CC2)cc2cn[nH]c12	150 nM	–	–	–
Cc1cc(C[C@@H](NC(=O)N2CCC(c3ccc(C(F)(F)F)cc3C(F)(F)F)CC2)C(=O)N2CCC(N3CCCCC3)CC2)cc2cn[nH]c12	–	< 1.5 ×10⁻⁶ cm/s	7.1 ×10⁻⁶ cm/s	–
Cc1cc(C[C@@H](NC(=O)N2CCC(c3cccc4ccccc34)CC2)C(=O)N2CCC(N3CCCCC3)CC2)cc2cn[nH]c12	430 nM	–	–	–
Cc1cc(C[C@@H](NC(=O)N2CCN(c3ccccc3)CC2)C(=O)N2CCC(N3CCCCC3)CC2)cc2cn[nH]c12	44 nM	–	–	–
Cc1cc(C[C@@H](NC(=O)N2CCC(c3ccc(Cl)cc3Cl)CC2)C(=O)N2CCC(N3CCCCC3)CC2)cc2cn[nH]c12	1.1 nM	< 1.5 ×10⁻⁶ cm/s	2.4 ×10⁻⁶ cm/s	Active
Cc1cc(C[C@@H](NC(=O)N2CCN(c3ccc(F)c(F)c3)CC2)C(=O)N2CCC(N3CCCCC3)CC2)cc2cn[nH]c12	97 nM	–	–	–
Cc1cc(C[C@@H](NC(=O)N2CCC(c3ccc4ccccc4c3)CC2)C(=O)N2CCC(N3CCCCC3)CC2)cc2cn[nH]c12	–	< 1.5 ×10⁻⁶ cm/s	6.1 ×10⁻⁶ cm/s	–
Cc1cc(C[C@@H](NC(=O)N2CCC(c3cccc(Br)c3)CC2)C(=O)N2CCC(N3CCCCC3)CC2)cc2cn[nH]c12	130 nM	–	–	–
Cc1cc(C[C@@H](NC(=O)N2CCN(c3ccc(Cl)c(Cl)c3)CC2)C(=O)N2CCC(N3CCCCC3)CC2)cc2cn[nH]c12	12 nM	–	–	–
Cc1cc(C[C@@H](NC(=O)N2CCN(c3ccccc3C#N)CC2)C(=O)N2CCC(N3CCCCC3)CC2)cc2cn[nH]c12	8.9 nM	–	–	–
COC(=O)c1ccccc1N1CCN(C(=O)N[C@H](Cc2cc(C)c3[nH]ncc3c2)C(=O)N2CCC(N3CCCCC3)CC2)CC1	110 nM	–	–	–
Cc1cc(C[C@@H](NC(=O)N2CCC(c3ccccc3F)CC2)C(=O)N2CCC(N3CCCCC3)CC2)cc2cn[nH]c12	170 nM	–	–	–
Cc1cc(C[C@@H](NC(=O)N2CCN(c3ccc(-c4ccccc4)cc3)CC2)C(=O)N2CCC(N3CCCCC3)CC2)cc2cn[nH]c12	46 nM	–	–	–
Cc1cc(C[C@@H](NC(=O)N2CCN(c3ccccc3F)CC2)C(=O)N2CCC(N3CCCCC3)CC2)cc2cn[nH]c12	130 nM	–	–	–
CCOC(=O)c1ccc(N2CCN(C(=O)N[C@H](Cc3cc(C)c4[nH]ncc4c3)C(=O)N3CCC(N4CCCCC4)CC3)CC2)cc1	44 nM	–	–	–
Cc1ccc(C2CCN(C(=O)N[C@H](Cc3cc(C)c4[nH]ncc4c3)C(=O)N3CCC(N4CCCCC4)CC3)CC2)cc1	240 nM	–	–	–
Cc1cc(C[C@@H](NC(=O)N2CCC(c3cc4ccccc4cc3Cl)CC2)C(=O)N2CCC(N3CCCCC3)CC2)cc2cn[nH]c12	0.23 nM	< 1.5 ×10⁻⁶ cm/s	5.7 ×10⁻⁶ cm/s	Active
Cc1cc(C[C@@H](NC(=O)N2CCN(c3ccc(S(C)(=O)=O)cc3Cl)CC2)C(=O)N2CCC(N3CCCCC3)CC2)cc2cn[nH]c12	7 nM	–	–	–
Cc1cc(C[C@@H](NC(=O)N2CCC(N3Cc4cccc(F)c4NC3=O)CC2)C(=O)N2CCC(N3CCCCC3)CC2)cc2cn[nH]c12	–	< 1.5 ×10⁻⁶ cm/s	–	–

Continued by falling IC50 [1], values first:

IC50 [1]	Papp A→B [2]	Papp [3]	Activity [4]	Compound
460 nM	–	–	–	Cc1cc(C[C@@H](NC(=O)N2CCC(c3ccccc3)CC2)C(=O)N2CCC(N3CCCCC3)CC2)cc2cn[nH]c12
170 nM	–	–	–	Cc1ccccc1C1CCN(C(=O)N[C@H](Cc2cc(C)c3[nH]ncc3c2)C(=O)N2CCC(N3CCCCC3)CC2)CC1
120 nM	–	–	–	Cc1cccc(C2CCN(C(=O)N[C@H](Cc3cc(C)c4[nH]ncc4c3)C(=O)N3CCC(N4CCCCC4)CC3)CC2)c1F
99 nM	–	–	–	Cc1cc(C[C@@H](NC(=O)N2CCN(c3ccc(C#N)cc3)CC2)C(=O)N2CCC(N3CCCCC3)CC2)cc2cn[nH]c12
92 nM	–	–	–	Cc1cc(C[C@@H](NC(=O)N2CCC(c3ccc(F)cc3F)CC2)C(=O)N2CCC(N3CCCCC3)CC2)cc2cn[nH]c12
77 nM	–	–	–	Cc1cc(C[C@@H](NC(=O)N2CCN(c3ccc(Cl)cc3)CC2)C(=O)N2CCC(N3CCCCC3)CC2)cc2cn[nH]c12
34 nM	–	–	–	Cc1cc(C[C@@H](NC(=O)N2CCN(c3ccc(S(C)(=O)=O)cc3F)CC2)C(=O)N2CCC(N3CCCCC3)CC2)cc2cn[nH]c12
19 nM	–	5.2 ×10⁻⁶ cm/s	Active	Cc1cc(C[C@@H](NC(=O)N2CCN(c3cccc(Cl)c3)CC2)C(=O)N2CCC(N3CCCCC3)CC2)cc2cn[nH]c12
16 nM	< 1.5 ×10⁻⁶ cm/s	12 ×10⁻⁶ cm/s	Active	Cc1ccc(C2CCN(C(=O)N[C@H](Cc3cc(C)c4[nH]ncc4c3)C(=O)N3CCC(N4CCCCC4)CC3)CC2)c(Cl)c1
13 nM	–	–	–	Cc1cc(C[C@@H](NC(=O)N2CCC(c3ccc(Br)cc3)CC2)C(=O)N2CCC(N3CCCCC3)CC2)cc2cn[nH]c12
4.3 nM	< 1.5 ×10⁻⁶ cm/s	17 ×10⁻⁶ cm/s	Active	Cc1cc(C[C@@H](NC(=O)N2CCN(c3ccc(Cl)cc3Cl)CC2)C(=O)N2CCC(N3CCCCC3)CC2)cc2cn[nH]c12
2.9 nM	–	–	–	Cc1cc(C[C@@H](NC(=O)N2CCN(c3ccc(F)cc3S(C)(=O)=O)CC2)C(=O)N2CCC(N3CCCCC3)CC2)cc2cn[nH]c12
0.11 nM	–	–	–	Cc1cc(C[C@@H](NC(=O)N2CCC(c3cc4ccccc4cc3C#N)CC2)C(=O)N2CCC(N3CCCCC3)CC2)cc2cn[nH]c12
